Results on one compound are retold here after patent US10874685B2, “Pancreatic cancer therapy and diagnosis” (Deutsches Krebsforschungszentrum Stiftung des Öffentlichen …, priority 2014, dated 2020).

The test system of test [1] is PANC-1 cells. As to the kind of experiment: Transwell (Boyden chamber) migration assay, PANC-1. The following applies: PANC-1, Boyden chamber, increasing doses, 4 h. The class given is cell-based, human.
Test [2] concerns MIAPaCa-2 cells. As to the kind of experiment: Orthotopic pancreatic tumor mouse model treated with DRD2 antagonists. The class given is in vivo, mice. The conditions noted are these: compared to vehicle. Here is the method: Two million MIAPaCa-2 cells were resuspended in 10 μL Matrigel (BD Biosciences, San Jose, Calif.) were orthotopically implanted into the tail of the pancreas of 6-week-old Nod scid gamma animals (Jackson Labs, Bar Harbor, Me.) (day 1). When tumors were palpable (day 27), mice were randomized into 2 groups (n=7 in control group and n=9 in haloperidol group) and injected intraperitoneally with either haloperidol (10 mg/kg) or solvent (dimethylsulfoxide [DMSO] control group) for 12 days. The experiment was terminated when control mice appeared moribund. Weight of the animal and final tumor weight and volume were measured.

Test [3] deals with MIAPaCa-2 xenograft. As to the kind of experiment: Combination therapy in NSG mice, MIAPaCa-2 xenograft model. The class given is in vivo. The following applies: i.p. 16 days; pimozide 10 mg/kg daily; gemcitabine 20 mg/kg every 4 days.
Source text: Tumor volumes normalized to initial measurement shown in the y-axis every four days following treatment with either vehicle (gray line), the chemotherapeutic gemcitabine (green line), a combination therapy of 2-deoxy-D-glucose, atorvastatin and pimozide (2DG+ATR+Pim, redline), or a combination therapy of 2DG+ATR+Pim and gemcitabine (2DG+ATR+Pim+Gem, red dashed line) (FIG. 12A). […] Tumor weight (FIG. 12C) and volume of samples (FIG. 12D) harvested following treatment with, from left to right, control (Vehicle), 2DG+ATR, Pim alone, Pim+2DG+ATR, Gem alone, 2DG+ATR+Gem, Pim+Gem, or Pim+2DG+ATR+Gem.
NOD severe combined immunodeficiency gamma (NSG) mice were subcutaneously injected in the right flank with five million MIAPaCa-2 cells. Once tumors were detectable (200 mm^3), mice were randomized into 8 groups (5 in each group) and treated through intraperitoneal injection as indicated for 16 days. All drugs were given every day whereas gemcitabine was given every 4 days, alone or in combination. Experiment was terminated when control animals became moribund. The growth of tumors was measured every 4 days. Tumors were harvested and photographed. Tumor weights and volumes were measured.
The efficacy of the combined treatment approach was investigated using a MIAPaCa-2 xenograft model of pancreatic cancer.
The subject of test [4] is pancreatic cancer cell lines (PANC-1, CFPAC-1, CAPAN-1, MIAPaCa-2, BXPC-3). As to the kind of experiment: Sulforhodamine B (SRB) cytotoxicity assay on pancreatic cancer cell lines. The class given is cell-based, human. The following applies: increasing concentration, 72 h. Here is the method:
PANC-1, CFPAC-1, CAPAN-1, MIAPaCa-2, BXPC-3 and fibroblast cells were seeded for 24 h and were exposed to increasing concentration of Pimozide and vehicle for 72 h (FIG. 3A). The same procedure was followed for treatment of cancer cell lines with L741 (FIG. 3B). Cell viability was characterized using a SRB assay. Values are the mean+/−SD of six independent experiments.
Five pancreatic ductal cancer cell lines with various degree of differentiation were obtained from American Type Culture Collection (Rockville, USA) and Normal Human Dermal Fibroblasts (NHDF) obtained from PromoCell. BXPC-3 (moderately differentiated) as well as poorly differentiated human pancreatic cancer cell lines, PANC-1 and MIAPaCa-2, have been established from primary tumor. AsPC-1, CAPAN-1 and CFPAC-1 which represent well differentiated cell lines was isolated from ascites and liver metastasis of pancreas adenocarcinoma. All cell lines contain mutation in P53 whereas K-ras mutation reported in all with the exception of BxPc3. BRCA2 mutation just reported in CAPAN-1 cells.
Sulforhodamine B sodium salt (sigma) was used to assess cell viability and IC50 determination of pancreatic cancer cells. […] Cell viability was specified by using plate reader (TECAN) with measuring of absorbance at 570 and 650 nm (background) in treated or untreated 96 well plate.
A general note: Sulforhodamine B stains cellular protein and so reports cell mass.

Test [5] concerns MIAPaCa-2 cells. Kind of test: Transwell (Boyden chamber) migration assay, MIAPaCa-2. The class given is cell-based, human. The following applies: MIAPaCa-2, Boyden chamber, increasing doses, 4 h. Here is the method: MIAPaCa-2 cells were platted on transwells and exposed to increasing doses of Pimozide for 4 h (FIG. 7A). Migrated cells were measured and normalized to their controls. Values are the mean+/−SD of four replicate.
This assay for confirmation of cell migration was performed using 96-well Costar Transwell chambers with 8.0 μm pore polycarbonate membranes (Corning Inc., Corning, N.Y.). Cell culture inserts transwells were placed in wells of 96 well plate. The bottom chambers were filled with 120 μl of cell culture medium containing 10% FBS. Cells suspended in 70 μl serum free medium with DMSO as negative control or drugs were added to the upper part of each chamber followed by incubation at 37° C. with 5% CO2. After 4 h the medium was aspirated from the top of chambers and the bottom side of chambers washed with PBS. Those that have penetrated to the bottom side of the membrane were detached with 0.25% tryspin/EDTA during 3 min (37° C.) followed by inactivation of trypsine with soybean (Sigma Aldrich). […] Six replicates were performed for each treatment condition to predict the responder outcome variable and the luminescence signal which is corresponding to the number of live suspended cells was measured. Graph was plotted according to the readings obtained. […]

The test system of test [6] is PANC-1 cells. Kind of test: Wound healing (scratching) assay for cell migration. The class given is cell-based, human. The following applies: PANC-1, increasing concentrations, 10 h. Here is the method:
PANC-1 cells were plated in the chamber were already attached in 12 well plate and allowed to grow for 24 h. Then, a wound was made in the confluent monolayer by removing the chamber. Cells were exposed to increasing concentration of Pimozide (FIG. 6A) or L741 (FIG. 6B) and vehicle for 10 h. Wound gap closure was measured for each drug concentration by comparing the gap at time 0 h to the one at the time 10 h when the gap closed in negative control and normalized to untreated condition.
PANC-1 cells were seeded into the 35 mm-dish culture-silicon Insert frames from Ibidi where already attached to the 6 well culture plate. When 96-98% confluency was achieved, the insert frames were removed using sterile forceps to reach cell free gap. To create a reference point for subsequent measurements, three different part of the gap was marked on the underside of the plastic. Floating cells and cell debris were washed using PBS, relative culture medium was added to each wells and migration distance was photographed using a Zeiss Axiovert 24 light microscope at zero time in the marked areas. Afterward, the wells were treated by addition of DMSO as control and different increasing concentration of Pim and L741. Plates were then placed into the incubator and the cells were allowed to migrate until the time when the gap for the […] closed (t time). Images were taken from the marked areas again. This assay was performed employing various concentrations of drugs at which maximum 5% viability inhibition was observed after 10 h treatment.

Molecules are shown by their SMILES. “Also recorded” adds a separate entry of the source.

Consider `O=c1[nH]c2ccccc2n1C1CCN(CCCC(c2ccc(F)cc2)c2ccc(F)cc2)CC1` [pimozide], for which the values for the migrated cells result in test [1] and in test [5] were “significantly reduced migrated cells; also recorded: Dose dependent inhibitory effect” and “significantly reduced migrated cells; also recorded: dose dependent inhibitory effect”, respectively. Further, the metastatic dissemination result in test [2] is on record as “reduces tumor volume, metastasis”. Further, the tumor volume entry in test [2] (haloperidol 10 mg/kg intraperitoneally for 12 days) is “reduces tumor volume”; in test [3] it was “reduced tumor weight and volume”. Moreover, the tumor weight entry in test [3] was “reduced tumor weight”. The “cell viability of pancreatic cancer cell lines” value in test [4] was “Potent toxicity effect; also recorded: dose dependent toxicity effect”. The “tumor cell migration (wound gap closure)” value is “tumor cell migration was affected” in test [6] and “dose dependent inhibitory effect” in test [6] (listed as Pimozide).
